According to the NIST ThermoML archive (doi:10.1016/j.fluid.2018.04.024):
± gives the expanded uncertainty stated by the source.

Conditions: 313.15 K; 100 kPa; Liquid; Vibrating tube method

mass density [kg/m3] | Structure (SMILES)
875.83 ± 0.9 | CCCC(=O)OC [methyl butanoate]
861.82 ± 0.89 | CCCCCCC(=O)OC [methyl heptanoate]
865.26 ± 0.89 | CCCCCC(=O)OC [methyl hexanoate]
857.46 ± 0.88 | CCCCCCCCC(=O)OC [methyl nonanoate]

Same assay, conditions: 313.15 K; 1000 kPa; Liquid; Vibrating tube method

mass density [kg/m3] | Structure (SMILES)
876.3 ± 0.9 | CCCC(=O)OC [methyl butanoate]
862.16 ± 0.89 | CCCCCCC(=O)OC [methyl heptanoate]
865.64 ± 0.89 | CCCCCC(=O)OC [methyl hexanoate]
857.68 ± 0.89 | CCCCCCCCC(=O)OC [methyl nonanoate]

Same assay, conditions: 313.15 K; 3000 kPa; Liquid; Vibrating tube method

mass density [kg/m3] | Structure (SMILES)
878.42 ± 0.91 | CCCC(=O)OC [methyl butanoate]
863.9 ± 0.89 | CCCCCCC(=O)OC [methyl heptanoate]
867.5 ± 0.9 | CCCCCC(=O)OC [methyl hexanoate]
859.33 ± 0.89 | CCCCCCCCC(=O)OC [methyl nonanoate]

Same assay, conditions: 313.15 K; 5000 kPa; Liquid; Vibrating tube method

mass density [kg/m3] | Structure (SMILES)
880.45 ± 0.91 | CCCC(=O)OC [methyl butanoate]
865.62 ± 0.9 | CCCCCCC(=O)OC [methyl heptanoate]
869.26 ± 0.9 | CCCCCC(=O)OC [methyl hexanoate]
860.86 ± 0.89 | CCCCCCCCC(=O)OC [methyl nonanoate]

Same assay, conditions: 313.15 K; 10000 kPa; Liquid; Vibrating tube method

mass density [kg/m3] | Structure (SMILES)
885.34 ± 0.92 | CCCC(=O)OC [methyl butanoate]
869.71 ± 0.91 | CCCCCCC(=O)OC [methyl heptanoate]
873.55 ± 0.91 | CCCCCC(=O)OC [methyl hexanoate]
864.63 ± 0.9 | CCCCCCCCC(=O)OC [methyl nonanoate]

Same assay, conditions: 313.15 K; 15000 kPa; Liquid; Vibrating tube method

mass density [kg/m3] | Structure (SMILES)
889.92 ± 0.93 | CCCC(=O)OC [methyl butanoate]
873.55 ± 0.92 | CCCCCCC(=O)OC [methyl heptanoate]
877.59 ± 0.92 | CCCCCC(=O)OC [methyl hexanoate]
868.21 ± 0.91 | CCCCCCCCC(=O)OC [methyl nonanoate]

Same assay, conditions: 313.15 K; 20000 kPa; Liquid; Vibrating tube method

mass density [kg/m3] | Structure (SMILES)
894.25 ± 0.94 | CCCC(=O)OC [methyl butanoate]
877.29 ± 0.93 | CCCCCCC(=O)OC [methyl heptanoate]
881.48 ± 0.93 | CCCCCC(=O)OC [methyl hexanoate]
871.68 ± 0.92 | CCCCCCCCC(=O)OC [methyl nonanoate]

Same assay, conditions: 313.15 K; 25000 kPa; Liquid; Vibrating tube method

mass density [kg/m3] | Structure (SMILES)
898.53 ± 0.95 | CCCC(=O)OC [methyl butanoate]
880.89 ± 0.94 | CCCCCCC(=O)OC [methyl heptanoate]
885.29 ± 0.94 | CCCCCC(=O)OC [methyl hexanoate]
875.06 ± 0.93 | CCCCCCCCC(=O)OC [methyl nonanoate]

Same assay, conditions: 313.15 K; 30000 kPa; Liquid; Vibrating tube method

mass density [kg/m3] | Structure (SMILES)
902.47 ± 0.96 | CCCC(=O)OC [methyl butanoate]
884.32 ± 0.95 | CCCCCCC(=O)OC [methyl heptanoate]
888.86 ± 0.95 | CCCCCC(=O)OC [methyl hexanoate]
878.23 ± 0.94 | CCCCCCCCC(=O)OC [methyl nonanoate]

Same assay, conditions: 313.15 K; 35000 kPa; Liquid; Vibrating tube method

mass density [kg/m3] | Structure (SMILES)
906.46 ± 0.96 | CCCC(=O)OC [methyl butanoate]
887.66 ± 0.95 | CCCCCCC(=O)OC [methyl heptanoate]
892.33 ± 0.96 | CCCCCC(=O)OC [methyl hexanoate]
881.36 ± 0.95 | CCCCCCCCC(=O)OC [methyl nonanoate]

Same assay, conditions: 313.15 K; 40000 kPa; Liquid; Vibrating tube method

mass density [kg/m3] | Structure (SMILES)
910.02 ± 0.97 | CCCC(=O)OC [methyl butanoate]
890.73 ± 0.96 | CCCCCCC(=O)OC [methyl heptanoate]
895.54 ± 0.96 | CCCCCC(=O)OC [methyl hexanoate]
884.18 ± 0.96 | CCCCCCCCC(=O)OC [methyl nonanoate]

Same assay, conditions: 313.15 K; 50000 kPa; Liquid; Vibrating tube method

mass density [kg/m3] | Structure (SMILES)
917.24 ± 0.98 | CCCC(=O)OC [methyl butanoate]
896.98 ± 0.98 | CCCCCCC(=O)OC [methyl heptanoate]
901.99 ± 0.98 | CCCCCC(=O)OC [methyl hexanoate]
890.09 ± 0.98 | CCCCCCCCC(=O)OC [methyl nonanoate]

Same assay, conditions: 313.15 K; 60000 kPa; Liquid; Vibrating tube method

mass density [kg/m3] | Structure (SMILES)
923.73 ± 1 | CCCC(=O)OC [methyl butanoate]
902.59 ± 0.99 | CCCCCCC(=O)OC [methyl heptanoate]
907.83 ± 0.99 | CCCCCC(=O)OC [methyl hexanoate]
895.33 ± 0.99 | CCCCCCCCC(=O)OC [methyl nonanoate]

Same assay, conditions: 323.15 K; 100 kPa; Liquid; Vibrating tube method

mass density [kg/m3] | Structure (SMILES)
864.35 ± 0.89 | CCCC(=O)OC [methyl butanoate]
852.25 ± 0.88 | CCCCCCC(=O)OC [methyl heptanoate]
855.18 ± 0.88 | CCCCCC(=O)OC [methyl hexanoate]
848.37 ± 0.88 | CCCCCCCCC(=O)OC [methyl nonanoate]

Same assay, conditions: 323.15 K; 1000 kPa; Liquid; Vibrating tube method

mass density [kg/m3] | Structure (SMILES)
865.42 ± 0.89 | CCCC(=O)OC [methyl butanoate]
853.12 ± 0.88 | CCCCCCC(=O)OC [methyl heptanoate]
856.16 ± 0.88 | CCCCCC(=O)OC [methyl hexanoate]
849.17 ± 0.88 | CCCCCCCCC(=O)OC [methyl nonanoate]

Same assay, conditions: 323.15 K; 3000 kPa; Liquid; Vibrating tube method

mass density [kg/m3] | Structure (SMILES)
867.62 ± 0.9 | CCCC(=O)OC [methyl butanoate]
854.89 ± 0.89 | CCCCCCC(=O)OC [methyl heptanoate]
858.01 ± 0.89 | CCCCCC(=O)OC [methyl hexanoate]
850.82 ± 0.88 | CCCCCCCCC(=O)OC [methyl nonanoate]

Same assay, conditions: 323.15 K; 5000 kPa; Liquid; Vibrating tube method

mass density [kg/m3] | Structure (SMILES)
869.76 ± 0.9 | CCCC(=O)OC [methyl butanoate]
856.64 ± 0.89 | CCCCCCC(=O)OC [methyl heptanoate]
859.89 ± 0.89 | CCCCCC(=O)OC [methyl hexanoate]
852.43 ± 0.89 | CCCCCCCCC(=O)OC [methyl nonanoate]

Same assay, conditions: 323.15 K; 10000 kPa; Liquid; Vibrating tube method

mass density [kg/m3] | Structure (SMILES)
875.02 ± 0.91 | CCCC(=O)OC [methyl butanoate]
860.97 ± 0.9 | CCCCCCC(=O)OC [methyl heptanoate]
864.44 ± 0.9 | CCCCCC(=O)OC [methyl hexanoate]
856.42 ± 0.9 | CCCCCCCCC(=O)OC [methyl nonanoate]

Same assay, conditions: 323.15 K; 15000 kPa; Liquid; Vibrating tube method

mass density [kg/m3] | Structure (SMILES)
879.93 ± 0.92 | CCCC(=O)OC [methyl butanoate]
865.07 ± 0.91 | CCCCCCC(=O)OC [methyl heptanoate]
868.76 ± 0.91 | CCCCCC(=O)OC [methyl hexanoate]
860.21 ± 0.91 | CCCCCCCCC(=O)OC [methyl nonanoate]

Same assay, conditions: 323.15 K; 20000 kPa; Liquid; Vibrating tube method

mass density [kg/m3] | Structure (SMILES)
884.63 ± 0.93 | CCCC(=O)OC [methyl butanoate]
869.08 ± 0.92 | CCCCCCC(=O)OC [methyl heptanoate]
872.98 ± 0.92 | CCCCCC(=O)OC [methyl hexanoate]
863.98 ± 0.92 | CCCCCCCCC(=O)OC [methyl nonanoate]

Same assay, conditions: 323.15 K; 25000 kPa; Liquid; Vibrating tube method

mass density [kg/m3] | Structure (SMILES)
888.92 ± 0.94 | CCCC(=O)OC [methyl butanoate]
872.69 ± 0.93 | CCCCCCC(=O)OC [methyl heptanoate]
876.76 ± 0.93 | CCCCCC(=O)OC [methyl hexanoate]
867.27 ± 0.93 | CCCCCCCCC(=O)OC [methyl nonanoate]

Same assay, conditions: 323.15 K; 30000 kPa; Liquid; Vibrating tube method

mass density [kg/m3] | Structure (SMILES)
893.19 ± 0.95 | CCCC(=O)OC [methyl butanoate]
876.31 ± 0.94 | CCCCCCC(=O)OC [methyl heptanoate]
880.55 ± 0.94 | CCCCCC(=O)OC [methyl hexanoate]
870.68 ± 0.94 | CCCCCCCCC(=O)OC [methyl nonanoate]

Same assay, conditions: 323.15 K; 35000 kPa; Liquid; Vibrating tube method

mass density [kg/m3] | Structure (SMILES)
897.21 ± 0.96 | CCCC(=O)OC [methyl butanoate]
879.74 ± 0.95 | CCCCCCC(=O)OC [methyl heptanoate]
884.15 ± 0.95 | CCCCCC(=O)OC [methyl hexanoate]
873.86 ± 0.95 | CCCCCCCCC(=O)OC [methyl nonanoate]

Same assay, conditions: 323.15 K; 40000 kPa; Liquid; Vibrating tube method

mass density [kg/m3] | Structure (SMILES)
901.15 ± 0.97 | CCCC(=O)OC [methyl butanoate]
883.15 ± 0.96 | CCCCCCC(=O)OC [methyl heptanoate]
887.68 ± 0.96 | CCCCCC(=O)OC [methyl hexanoate]
877.04 ± 0.96 | CCCCCCCCC(=O)OC [methyl nonanoate]

Same assay, conditions: 323.15 K; 50000 kPa; Liquid; Vibrating tube method

mass density [kg/m3] | Structure (SMILES)
908.62 ± 0.98 | CCCC(=O)OC [methyl butanoate]
889.53 ± 0.98 | CCCCCCC(=O)OC [methyl heptanoate]
894.33 ± 0.98 | CCCCCC(=O)OC [methyl hexanoate]
883.08 ± 0.98 | CCCCCCCCC(=O)OC [methyl nonanoate]

Same assay, conditions: 323.15 K; 60000 kPa; Liquid; Vibrating tube method

mass density [kg/m3] | Structure (SMILES)
915.65 ± 1 | CCCC(=O)OC [methyl butanoate]
895.63 ± 0.99 | CCCCCCC(=O)OC [methyl heptanoate]
900.65 ± 0.99 | CCCCCC(=O)OC [methyl hexanoate]
888.79 ± 0.99 | CCCCCCCCC(=O)OC [methyl nonanoate]
